Experimental findings from patent US20140194484A1, “Method of Treating Cachexia and Sarcopenia” (priority 2012, published 2014) are described below.

Assay [1] relates to pre-clinical models of cancer cachexia. Put plainly: pre-clinical models of cancer cachexia. It is filed as in vivo.
For assay [2], the system named is patients with cachexia related to late stage colorectal cancer (CRC) or non-small cell lung cancer (NSCLC). It is filed as in vivo, human. The method, then: An international multicentre, randomised, double blind, placebo controlled clinical trial was conducted with three parallel treatment groups with dose escalation within each group. Male and female patients aged between 25 to 80 years of age with cachexia related to underlying progressive or recurrent late stage colorectal cancer (CRC) or non-small cell lung cancer (NSCLC) were treated for 16 weeks with either S-pindolol or placebo. All patients received standard of care chemotherapy, radiotherapy and supportive care throughout the study at the discretion of their treating physician.
After provision of written informed consent, patients were assessed for eligibility at screening visits occurring from days -8 to -1. All eligible patients with written informed consent were given a set of performance tests [stair climbing power (SCP), hand grip strength (HGS), short performance battery test (SPBT) and the six minute walk test (SMWT)] and receive a 7 day course of placebo (1 tablet two times per day). Patients able to adequately complete the performance tests and with at least 80% compliance after 7 days (tablet count: at least […]) were then randomised on Day 0 to one of three treatment groups. All patients attended for visits on days 7, 14, 21, 28, (each +/−1 day), 56, 84, 112, and 140 (each +/−7 days).
The dose of S-pindolol or placebo was escalated by the investigator in a blinded fashion as described below under the heading “Dose Escalation”. The maximum period of drug titration was 4 weeks and the minimum period was 2 weeks. The patients were required to attend study visits at 1 week intervals after the start of the titration phase until completion of dose escalation. The aim of dose escalation for all subjects is to reach the target dose of 8 tablets per day (4 tablets bd) or the maximum tolerated dose for a particular patient within the first 4 week period. Dose titration was achieved by varying the number of tablets taken from bottle 2. This was done such that patients will be randomised to receive either placebo, 2.5 mg S-pindolol twice daily, 5 mg S-pindolol twice daily, 7.5 mg S-pindolol twice daily, or 10 mg S-pindolol twice daily according to tolerance of the study drug.
• S-pindolol or placebo was administered over a 16 week period. The treatment regimens for the study are summarised below. • At regular monitoring visits, a study monitor checked that all code-break envelopes remained intact.
• Product was taken orally with food as prescribed two times daily
A SMWT was conducted on days 0, 28, 56, 84 and 112. The SMWT was conducted as described by Paul L Enright (Respiratory Care, August 2003 Vol 48 No 8)^12. A straight, level and even area at least 20 meter long and 2 meters wide was marked out at each investigational site and used for the SMWT for all subjects at each time point. Identical chairs were placed at each end of the 20 meter track.
The SCP test was conducted on days 0, 28, 56, 84 and 112. The SCP test was modified from that described by Bean et al (Arch Phys Med Rehabil Vol 88, May 2007) to account for the different stairway configurations at the investigational sites.
A HGS test was conducted on days 0, 28, 56, 84 and 112. The HGS test was modified from that described by Bassey (1990; NIH, 1990). A standard handgrip dynamometer (provided by Sponsor) that can be adjusted for hand size was used at all sites. Both hands were alternately measured in triplicate, followed by a fourth attempt on the dominant hand only. After an explanation the subject squeezed the handle as forcefully as possible for a few seconds and then released. Subjects were encouraged verbally using a standard script and the best score (in kilograms) of the dominant hand recorded in the CRF.
DEXA was performed at selected DEXA scan centres on days at day -1, 56 and 112.
The maximum period of drug titration was 4 weeks and the minimum period was 2 weeks. […]

The mark [3] stands for this setting: compared with other β blockers studied.
The mark [4] stands for this setting: high dose (10 mg bd), ITT population, DEXA.

“Also recorded” adds a separate entry of the source.

Regarding `CC(C)NC[C@H](O)COc1cccc2[nH]ccc12` [S-pindolol], the “benefit compared to placebo and racemic pindolol (FIG. 4)” value in assay [1] (FIG. 4) is “particularly beneficial”. For the same compound, in assay [1] (setting [3]), the “effects on aspects of cancer cachexia” value is “significant effects on all aspects” and the impact upon survival entry is “greatest impact upon survival”. Moreover, in assay [1] (dose for dose basis, treatment of cachexia), the “efficacy compared with racemic pindolol” value is on record as “superior efficacy to the racemic parent material; also recorded: better effects than racemic pindolol”. Further, in assay [2] (2.5 and 10 mg bd vs placebo), the “Six minute walk test change” value was “trend towards dose response” and the “Stair climbing power change” value is “trend towards dose response”. In addition, in assay [2] (high dose (10 mg bd), ITT population), the “Hand Grip Strength change, efficacy compared to placebo” value is reported as “statistically significant”. Also, the “Absolute weight change (primary endpoint), efficacy compared to placebo” value in assay [2] (high dose (10 mg bd), ITT population, 16 weeks) is “statistically significant”. In addition, in assay [2] (setting [4]), the “Fat mass change, efficacy compared to placebo” value was “statistically significant” and the “Lean mass change, efficacy compared to placebo” value is reported as “statistically significant”. Besides, the “survival, difference between arms (FIG. 7)” value in assay [2] (low dose, high dose MT-102 and placebo arms) is “No significant differences in survival”.
